Results reported in patent US12501895B2, “Composition for cryopreservation of myocardial cells” (BEIJING BAHEAL WISART MEDICAL RESEARCH CO., LTD, priority 2020, dated 2025).

Test system: human cardiomyocytes
Assay: ex vivo culture of human cardiomyocytes for 7 days, rod-shaped rate (Example 4)
Assay type: cell-based
Details: 5-50 μM PAB versus 10 μM BLEB in M199 basal medium, cultured 7 days at 37° C., FIG. 4
Procedure: The purpose of this experiment was to investigate the effects of BLEB and PAB on cell survival rate and morphology during the ex vivo survival of cardiomyocytes, so as to predict the similarity of their roles during cryopreservation and resuscitation of cardiomyocytes.
10% fetal bovine serum, 100 U/ml penicillin and 100 μg/ml streptomycin were added to the M199 medium (purchased from Sigma Inc.), and the resulting medium was used as a basal medium. The experiments were divided into 6 groups, in which DMSO (as a control group), as well as 10 μM BLEB and 5 μM, 10 μM, 20 μM, and 50 μM PAB were added to the basal medium, respectively. The isolated human cardiomyocytes were divided into 6 groups, and the cells were plated on a 48-well cell culture plate coated with 200 μg/ml laminin in advance using 6 media, and the plate was placed and cultured in a cell incubator (with 5% CO2, and a relative saturated humidity of 95%) at 37° C. for 7 days.

Cc1ccc2c(c1)C(=O)[C@]1(O)CCN(c3ccc(N)cc3)C1=N2 [PAB, para-aminoblebbistatin]
rod-shaped rate of cardiomyocytes: close to or even better than the 10 μM BLEB group
